# Experimental data taken from US20120208781A1, “AMINOGLYCOSIDE DOSING REGIMENS” (Achaogen, Inc., priority 2009, published 2012).
# Where two headings read alike, the source gives them in different places.
# Tests used:
# [1] = Pharmacokinetics of Compound 1 after single bolus IV injection in rats; type: in vivo, Sprague Dawley rats; conditions: for half-life / AUC(0-inf) / C0 / clearance / MRT inf / Vd: Sprague Dawley, rat, plasma, 10 mg/kg
# Description: Male CD-1 mice, Sprague Dawley rats, and beagle dogs were administered Compound 1 intravenously. Compound 1 was preformulated as a sterile isotonic solution of 10 mg/mL in PBS. Specifically, male CD-1 mice were administered a single bolus IV injection of the Compound at 10 mg/kg, via a bolus IV injection into the tail vein. Two blood samples per mouse were collected by retro-orbital puncture into tubes containing the anticoagulant K2EDTA prior to dosing and at 0.033, 0.083, 0.25, 0.5, 1 and 24 hours. Rats were administered Compound 1 at 10 mg/kg via a bolus IV injection into the tail vein. Twelve blood samples per rat were collected via a jugular vein cannula into tubes containing the anticoagulant K2EDTA at various timepoints (i.e., 0.033, 0.083, 0.25, 0.5, 1, 2, 4, 6, 8, 10, 12, and 24 hours). Male beagle dogs were administered Compound 1 at 10 mg/kg through a temporary percutaneous catheter placed in a peripheral vein. Whole blood samples (0.5 mL) were collected from each dog prior to dosing and at 0.033, 0.083, 0.25, 0.5, 1, 2, 4, 6, 8, and 24 hours via direct venipuncture of a jugular or cephalic vein into tubes containing the anticoagulant K2EDTA. A sparse sampling method was employed to conserve animals and provide the best data possible from fewer mice. Samples were centrifuged, and plasma was collected and transferred into a new tube and frozen at −80° C. until they were analyzed.
# Blood, urine, and kidney samples collected over 24 hours were analyzed for Compound 1 levels using LC-MS/MS. Method performance was acceptable in the concentration ranges necessary to determine plasma levels. Compound 1 plasma concentrations were determined by comparing Compound 1 concentration in the sample to a standard curve derived from LC-MS/MS measurements of the analyte. The standard curve fit was linear with a 1/x^2 weighting.
# Bioanalytical data analyses were carried out using Analyst software (version 1.4.1, Applied Biosystems, Toronto, ON, Canada). […] PK parameters were determined by noncompartmental analysis using WinNonLin. Plasma protein binding was determined using equilibrium dialysis. In vitro stability was determined using commercially available plasma, microsomes and hepatocytes.
# [2] = test system: A. baumannii (AB); assay: MIC, broth microdilution, Brooklyn hospital isolates: A. baumannii; type: cell-based
# Description: In another study, the activity of Compound 1 against a collection of contemporary Gram-negative bacteria was determined. Unique patient isolates of P. aeruginosa (PA), A. baumannii (AB), K. pneumoniae (KP), E. coli (EC), and Enterobacter spp. (EB) from prior surveys at 16 Brooklyn, N.Y. hospitals were selected based on resistance patterns. The majority of isolates were fingerprinted by automated ribotyping. MICs were performed by broth microdilution. PCR was used to identify aminoglycoside-modifying enzymes (AMEs) in AB and KP and the KPC gene in Enterobacteriaceae (EN). The expression of the efflux genes mexA, C, E and X in PA, and adeB in AB was assessed by real-time RT-PCR.
# [3] = test system: cochlear hair cells; assay: Cytocochleogram analysis in 28-day guinea pig ototoxicity model; type: in vivo, guinea pigs
# Description: Following euthanasia and whole body intravascular perfusion with 4% paraformaldehyde, the temporal bones of the left and right ears were removed. Gross middle ear assessments were performed using a dissecting microscope. […] Following gross middle ear assessment, the cochleas of the left ear were fixed by intrascalar perfusion with 4% paraformaldehyde. Cochlea tissues of both ears were placed in 4% paraformaldehyde for approximately 1 hour. Tissues were then transferred to 0.5% paraformaldehyde, stored refrigerated, and shipped on gel packs to the Kresge Hearing Research Institute, Ann Arbor, Mich., for further processing and cytocochleogram analysis.
# These guinea pig ototoxicity studies also included microscopic analysis of surgically dissected cochleas from each animal to assess hair cell damage (cytocochleograms). The underlying cause of aminoglycoside related hearing loss is damage to the hair cells of the auditory system after significant accumulation of aminoglycosides in the inner ear. In the cochlea, drug-induced hair cell loss typically progresses from the basal to the apical turns of the cochlea. Perception of high-frequency sounds, a function of the basal hair cells, is lost first; perception of low-frequency sounds, a function of the more apical hair cells, is the last to be lost (Selimoglu, E., Curr Pharm Des. 2007; 13(1):119-26). For obvious reasons, it is impractical to obtain cytocochleograms from each animal prior to dosing, and some hair cell loss is usually observed in control (vehicle dosed) animals in these guinea pig studies. This variability makes it difficult to determine whether hair cell loss observed post-treatment is due to the drug treatment, especially mild hair cell loss, […]
# [4] = iv, 10 mg/kg single bolus IV, Mean ± SD
# [5] = iv, 10 mg/kg single bolus IV, Rat 101
# [6] = iv, 10 mg/kg single bolus IV, Rat 102
# [7] = iv, 10 mg/kg single bolus IV, Rat 103
# [8] = Acinetobacter baumannii, AB (n = 38)
structure (smiles),measurement,setting,value
"CN[C@@H]1[C@@H](O)[C@@H](O[C@@H]2[C@@H](O)[C@H](O[C@H]3OC(CNCCO)=CC[C@H]3N)[C@@H](N)C[C@H]2NC(=O)[C@@H](O)CCN)OC[C@]1(C)O [Compound 1, 6′-(2-Hydroxy-ethyl)-1-(4-amino-2(S)-hydroxy-butyryl)-sisomicin]",tissue distribution,[1],distributed to rat kidneys
same,half-life,"[1]; intravenous, read-out: t½ (renal clearance) (converted)",~60 min
same,AUC(0-inf),[1]; [4],15700 ng·h/mL
same,C0,[1]; [4],37500 ng/mL
same,clearance,[1]; [4],10.8 mL/min/kg
same,MRT inf,"[1]; iv, 10 mg/kg single bolus IV, Mean ± SD, read-out: MRT0-∞",42 min
same,Vd,"[1]; iv, 10 mg/kg single bolus IV, Mean ± SD, read-out: Vss",0.437 L/kg
same,half-life,"[1]; iv, 10 mg/kg single bolus IV, Mean ± SD, read-out: t1/2 (converted)",56.4 min
same,AUC(0-inf),[1]; [5],13800 ng·h/mL
same,C0,[1]; [5],41700 ng/mL
same,clearance,[1]; [5],12.1 mL/min/kg
same,MRT inf,"[1]; iv, 10 mg/kg single bolus IV, Rat 101, read-out: MRT0-∞",36 min
same,Vd,"[1]; iv, 10 mg/kg single bolus IV, Rat 101, read-out: Vss",0.403 L/kg
same,half-life,"[1]; iv, 10 mg/kg single bolus IV, Rat 101, read-out: t1/2 (converted)",57 min
same,AUC(0-inf),[1]; [6],18500 ng·h/mL
same,C0,[1]; [6],42200 ng/mL
same,clearance,[1]; [6],9.02 mL/min/kg
same,MRT inf,"[1]; iv, 10 mg/kg single bolus IV, Rat 102, read-out: MRT0-∞",48 min
same,Vd,"[1]; iv, 10 mg/kg single bolus IV, Rat 102, read-out: Vss",0.434 L/kg
same,half-life,"[1]; iv, 10 mg/kg single bolus IV, Rat 102, read-out: t1/2 (converted)",55.8 min
same,AUC(0-inf),[1]; [7],14800 ng·h/mL
same,C0,[1]; [7],28800 ng/mL
same,clearance,[1]; [7],11.3 mL/min/kg
same,MRT inf,"[1]; iv, 10 mg/kg single bolus IV, Rat 103, read-out: MRT0-∞",42 min
same,Vd,"[1]; iv, 10 mg/kg single bolus IV, Rat 103, read-out: Vss",0.473 L/kg
same,half-life,"[1]; iv, 10 mg/kg single bolus IV, Rat 103, read-out: t1/2 (converted)",55.8 min
same,Cmax and exposure (AUC) dose linearity,[1]; intravenous dosing,dose linear to 75 mg/kg
same,isolates with Compound 1 MICs >8,[2]; AB isolates with increased expression of adeB,69%
same,isolates with Compound 1 MICs>4,[2]; AB isolates with the AME aacA4,93%
same,isolates with Compound 1 MICs >8,[2]; AB isolates without increased expression of adeB,13%
same,isolates with Compound 1 MICs>4,[2]; AB isolates without the AME aacA4,50%
same,MIC50,[2]; [8],8 µg/mL
same,MIC90,[2]; [8],> 16 µg/mL
same,MIC,"[2]; Acinetobacter baumannii, AB isolates without AMEs, read-out: MICs achieved by some isolates",> 16 µg/mL
same,animals with a few spikes of minimal hair cell loss,"[3]; guinea pigs, 8 mg/kg",2/8
same,animals with minimal to moderate outer hair cell loss at the apical end or middle region,"[3]; guinea pigs, 30 mg/kg",3/8
same,animals with large loss of outer hair cells across the length of the cochlea,"[3]; guinea pigs, 80 mg/kg",One of 8
same,animals with minimal loss of both inner and outer hair cells at the mid-cochlea or apical end,"[3]; guinea pigs, 80 mg/kg",2/8
same,dose-response of hair cell loss,"[3]; guinea pigs, 8, 30, 80 mg/kg",no dose-response of hair cell loss
